Source: patent publication US9630941B2 (priority 2008, dated 2017)

Columns and labels:
[1] = Aqueous solubility, pH dependent; type: physicochemical
[2] = Chemical stability pH dependent at 25° C.; type: physicochemical
Experimental: B. Chemical Stability pH Dependent at 25° C.

[3] = Thermal stability, 120° C. for 10 min; type: physicochemical
Experimental: C. Thermal Stability—120° C. for 10 min.

[4] = Bioreversion: plasma stability, porcine plasma; type: in vitro ADME
[5] = Porcine buccal tissue homogenate stability; type: in vitro ADME; details: protein concentration 2 mg/ml
Experimental: (§1) b. Porcine Buccal Tissue Homogenate Stability
(§2) Protein Concentration 2 mg/ml

[6] = Control (IPBS) stability for the buccal homogenate study; type: physicochemical
Experimental: as §1, §2

[7] = Plasma THC from HME buccal patches in swine model; type: in vivo
Experimental: THC was used as control formulation. Plasma was sampled from each animal at predetermined times and the amount of THC in the plasma was determined.
FIG. 20: Plasma THC concentrations as a function of time from THC-Val-HS loaded HME buccal patches. Data represents the mean value from 4 pigs. The animals were maintained under anesthesia for the first 4 hours and were then allowed to come out of anesthesia and given access to food and water.
A dose dependent plasma concentration time profile was then evaluated.
Plasma THC concentrations as a function of time and dose from THC-Val-HS loaded HME patches. Data represents the mean value. The animals for maintained under anesthesia for the first 4 hours and were then allowed to come out of anesthesia and given access to food and water.

[8] = Maximum amount dissolved in topical formulations; type: physicochemical
[9] = Stability of THC-Val-HS HME transmucosal patch; details: for Assay (as a % of theoretical amount): HME transmucosal patch
[10] = Plasma THC after rectal suppository (PEG 1000) in rat; details: polyethylene glycol 1000 base, dose equivalent to 1 mg THC
[11] = system: intraocular pressure (IOP) induced model of glaucoma; test: Rabbit glaucoma model, IOP lowering after topical instillation; details: for Peak IOP drop, IOP as % of the baseline IOP: 50 μL topical
[12] = In vivo ocular bioavailability of THC after topical formulations
[13] = THC-Val-HS 0.25% w/v in 0.1% Cremophor RH 40 + 0.02% BAK + 0.1% EDTA + 0.5% HPMC, 1 Hour
[14] = THC-Val-HS 0.26% w/v in 2.5% HPβCD + 0.5% HPMC, 1 Hour
[15] = THC-Val-HS 0.26% w/v in 2.5% HPβCD + 0.5% HPMC, 3 Hours
[16] = THC-Val-HS 10% w/w Ocular Film, 1 Hour
[17] = THC-Val-HS 10% w/w Ocular Film, 3 Hours

CCCCCc1cc(OC(=O)C(NC(=O)CCC(=O)O)C(C)C)c2c(c1)OC(C)(C)C1CCC(C)=CC21 (stereo not drawn) [THC-Valinate-HS (15), THC-valinate-hemisuccinate]
Aqueous Solubility ([1]; H20): 8.50 ± 6.00 µg/mL
Aqueous Solubility ([1]; Water): 16.54 ± 11.69 µM
Aqueous Solubility ([1]; pH 1.2): 0.06 ± 0.03 µg/mL
Aqueous Solubility ([1]; pH 1.2, listed as THC-Valine-HS): 0.12 ± 0.06 µM
Aqueous Solubility ([1]; pH 2): 0.09 ± 0.03 µg/mL
Aqueous Solubility ([1]; pH 2, listed as THC-Valine-HS): 0.17 ± 0.06 µM
Aqueous Solubility ([1]; pH 5): 0.35 ± 0.02 µg/mL
Aqueous Solubility ([1]; pH 5, listed as THC-Valine-HS): 0.67 ± 0.04 µM
Aqueous Solubility ([1]; pH 6): 12.74 ± 1.80 µg/mL
Aqueous Solubility ([1]; pH 6, listed as THC-Valine-HS): 24.80 ± 3.51 µM
Aqueous Solubility ([1]; pH 7): 155.67 ± 31.19 µg/mL
Aqueous Solubility ([1]; pH 7, listed as THC-Valine-HS): 303.06 ± 60.72 µM
Aqueous Solubility ([1]; pH 8): 117.04 ± 10.91 µg/mL
Aqueous Solubility ([1]; pH 8, listed as THC-Valine-HS): 227.86 ± 21.24 µM
Aqueous Solubility ([1]; pH 9): 0.02 ± 0.00 µg/mL
Aqueous Solubility ([1]; pH 9, listed as THC-Valine-HS): 0.05 ± 0.00 µM
First order rate constant ([2]; Buffer pH 5.0, 25° C.): Stable
First order rate constant ([2]; Buffer pH 7.0, 25° C.): Stable
First order rate constant ([2]; Buffer pH 9.0, 25° C.): Stable
First order rate constant ([2]; Water, 25° C.): Stable
Drug loading (%) [3]: 112.21 ± 4.99%
CBN content of the sample after heating ([3]; 120° C. for 10 min): 0 µg
Drug remaining ([3]; 120° C. for 10 min): 1350.13 ± 387.10 µg
THC content of the sample after heating ([3]; 120° C. for 10 min): 80.26 ± 8.59 µg
Drug remaining (%) ([3]; 120° C. for 10 min, % of initial): (96.29 ± 3.89) %
CBN content of the sample, initial ([3]; before heating): 0 µg
Initial, μg (drug itself) ([3]; before heating): 1411.49 ± 459.10 µg
THC content of the sample, initial ([3]; before heating): 96.52 ± 3.72 µg
K [4]: 85.54 ± 3.74 ×10^−2 min^−1
T1/2 [4]: 8.11 ± 0.35 min
K [5]: 2.96 ± 0.19 ×10^−3 min^−1
T1/2 [5]: 23.43 ± 1.49 min
K [6]: 0.40 ± 0.02 ×10^−3 min^−1
Dose dependence of THC blood levels from HME patches ([7]; swine, 5, 10, 20 mg formulations): dose dependant
11-OH-THC or carboxy metabolite THC-COOH in plasma ([7]; swine, buccal patch): not seen
THC levels in plasma from transmucosal HME patches ([7]; swine, buccal patch, listed as THC-Val-HS): Significant plasma THC levels were observed
maximum amount that could be dissolved ([8]; Tocrisolve emulsion): 0.97 % w/v
maximum amount that could be dissolved ([8]; micellar solution: HPβCD 15% + Cremophor RH 40 0.25% + BAK 0.01% + EDTA 0.1% + HPMC 0.5% w/v): 0.89 % w/v
Assay (as a % of theoretical amount) ([9]; 1 Month, 25° C./60% RH): 110.6 ± 0.1%
Assay (as a % of theoretical amount) ([9]; 1 Month, 40° C./75% RH): 80.9 ± 3.9%
Assay (as a % of theoretical amount) ([9]; 3 Month, 25° C./60% RH): 108.3 ± 4.6%
Assay (as a % of theoretical amount) ([9]; Initial): 108.4 ± 0.2%
Stability in the hot-melt-extruded formulation ([9]; three month stability data): stable
Blood levels after rectal administration [10]: significant blood levels
Peak IOP drop, IOP as % of the baseline IOP ([11]; Tocrisolve emulsion, 0.97% w/v THC-Val-HS): 53±3%
IOP-time profile compared with THC ([11]; at a lower dose): significantly better than that of THC
Duration of action (time taken for IOP to return to 90% of baseline) ([11]; both formulations): about 4 hours
time to peak IOP drop after instilling ([11]; micellar solution and Tocrisolve emulsion): ≤ 90 min
Peak IOP drop, IOP as % of the baseline IOP ([11]; micellar solution, 0.89% w/v THC-Val-HS): 62±3%
THC concentrations in aqueous humor, iris-ciliary bodies / anterior segment ocular tissues ([12]; 1 hour post topical application): significant THC concentrations
Total THC concentration, Aqueous Humor [12, 13]: 62.1 ± 12.6 ng/100 μL
Total THC concentration, Cornea [12, 13]: 1191.7 ± 231.1 ng/50 mg Tissue
Total THC concentration, Iris-Cilliary Body [12, 13]: 51.44 ± 19.5 ng/50 mg Tissue
Total THC concentration, Sclera [12, 13]: 913.4 ± 432.9 ng/250 mg Tissue
Total THC concentration, Aqueous Humor [12, 14]: 69.4 ± 16.7 ng/100 μL
Total THC concentration, Cornea [12, 14]: 1677.1 ± 172.1 ng/50 mg Tissue
Total THC concentration, Iris-Cilliary Body [12, 14]: 65.8 ± 15.9 ng/50 mg Tissue
Total THC concentration, Sclera [12, 14]: 882.2 ± 185.8 ng/250 mg Tissue
Total THC concentration, Aqueous Humor [12, 15]: 38.3 ± 10.2 ng/100 μL
Total THC concentration, Cornea [12, 15]: 1142.3 ± 415.9 ng/50 mg Tissue
Total THC concentration, Iris-Cilliary Body [12, 15]: 57.9 ± 16.1 ng/50 mg Tissue
Total THC concentration, Sclera [12, 15]: 241.8 ± 106.6 ng/250 mg Tissue
Total THC concentration, Aqueous Humor [12, 16]: 61.3 ± 32.1 ng/100 μL
Total THC concentration, Cornea [12, 16]: 1634.5 ± 756.5 ng/50 mg Tissue
Total THC concentration, Iris-Cilliary Body [12, 16]: 86.03 ± 38.2 ng/50 mg Tissue
Total THC concentration, Retina-Choroid [12, 16]: 17.02 ± 8.01 ng/50 mg Tissue
Total THC concentration, Sclera [12, 16]: 1891.2 ± 771.5 ng/250 mg Tissue
Total THC concentration, Aqueous Humor [12, 17]: 29.1 ± 14.2 ng/100 μL
Total THC concentration, Cornea [12, 17]: 1043.4 ± 614.4 ng/50 mg Tissue
Total THC concentration, Iris-Cilliary Body [12, 17]: 104.2 ± 41.2 ng/50 mg Tissue
Total THC concentration, Retina-Choroid [12, 17]: 11.9 ± 4.9 ng/50 mg Tissue
Total THC concentration, Sclera [12, 17]: 812.6 ± 501.4 ng/250 mg Tissue
